Data from patent US8119681B2, “2-[1-phenyl-5-hydroxy or methoxy-4alpha-methyl-hexahydrocyclopenta [ƒ]indazole-5-YL]ethyl phenyl derivatives as glucocorticoid receptor ligands” (Merck Sharp & Dohme Corp., priority 2006, dated 2012).

Target: T1, human GR (Homo sapiens, UniProt P04150)
T1 sequence (P04150 1-777): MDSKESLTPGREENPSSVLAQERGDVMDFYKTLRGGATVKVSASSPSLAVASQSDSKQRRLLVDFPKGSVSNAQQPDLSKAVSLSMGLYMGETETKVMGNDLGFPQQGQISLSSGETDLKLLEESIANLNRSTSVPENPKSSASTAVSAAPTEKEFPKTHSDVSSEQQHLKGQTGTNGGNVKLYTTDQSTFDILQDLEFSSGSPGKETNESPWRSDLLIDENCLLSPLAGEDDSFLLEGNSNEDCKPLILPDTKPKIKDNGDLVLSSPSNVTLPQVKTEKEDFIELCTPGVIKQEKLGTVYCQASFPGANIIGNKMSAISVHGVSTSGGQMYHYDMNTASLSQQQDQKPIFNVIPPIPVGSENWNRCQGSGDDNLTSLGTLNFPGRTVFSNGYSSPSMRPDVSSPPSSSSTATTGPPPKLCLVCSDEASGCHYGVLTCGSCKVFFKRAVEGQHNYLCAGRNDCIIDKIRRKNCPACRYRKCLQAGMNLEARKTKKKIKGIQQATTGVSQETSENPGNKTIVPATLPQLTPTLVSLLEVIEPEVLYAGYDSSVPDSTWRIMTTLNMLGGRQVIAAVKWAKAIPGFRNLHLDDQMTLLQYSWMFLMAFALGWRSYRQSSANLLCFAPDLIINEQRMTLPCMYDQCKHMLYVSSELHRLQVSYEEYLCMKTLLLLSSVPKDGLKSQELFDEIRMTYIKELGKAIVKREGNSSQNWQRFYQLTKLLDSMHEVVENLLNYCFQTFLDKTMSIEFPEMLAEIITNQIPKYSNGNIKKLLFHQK
Test: Transrepression Assay (GITAR), TNFα-β-lactamase reporter gene in U937 cells
Format: cell-based
Design: U937 cells contain an endogenous glucocorticoid receptor (GR); endogenous in cells; host or cells: U937 cells stably transfected with the TNF-α promoter/β-lactamase reporter only
Settings: U-937; 100 nM dexamethasone = 100% activity; read-out: maximal activity in the transrepression assay
How it was run: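 Reporter readout used CCF2-AM loading for 70–90 min at room temperature after overnight (~18 h, 37 °C) PMA (5 ng/ml final) and LPS (100 ng/ml final) stimulation of compound-treated (30–45 min) TNFα-β-lactamase U937 cells expressing native GR. Activity was normalised to 100 nM dexamethasone repression.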

SMILES | Emax [%]
C[C@H](NS(=O)(=O)CC(F)(F)F)c1c(F)cccc1CC[C@]1(O)CCC2=Cc3c(cnn3-c3ccc(F)cc3)C[C@@]21C [Example 99, 2,2,2-trifluoro-N-[(1S)-1-(2-fluoro-6-{2-[(4αS,5R)-1-(4-fluorophenyl)-5-hydroxy-4α-methyl-1,4,4α,5,6,7-hexahydrocyclopenta[f]indazol-5-yl]ethyl}phenyl)ethyl]ethanesulfonamide] | 5 to 100
C[C@]12Cc3cnn(-c4ccc(F)cc4)c3C=C1CC[C@@]2(O)CCc1cc(F)ccc1C(N)=O [Example 166, 4-fluoro-2-{2-[(4αS,5R)-1-(4-fluorophenyl)-5-hydroxy-4α-methyl-1,4,4α,5,6,7-hexahydrocyclopenta[f]indazol-5-yl]ethyl}benzamide] | 5 to 100
C[C@@H](NS(=O)(=O)C1CC1)c1ccccc1CC[C@]1(O)CCC2=Cc3c(cnn3-c3ccc(F)cc3)C[C@@]21C [Example 8, N-[(1R)-1-(2-{2-[(4αS,5R)-1-(4-Fluorophenyl)-5-hydroxy-4α-methyl-1,4,4α,5,6,7-hexahydrocyclopenta[f]indazol-5-yl]ethyl}phenyl)ethyl]cyclopropanesulfonamide] | 5 to 100
C[C@]12Cc3cnn(-c4cccc(F)c4)c3C=C1CC[C@@]2(O)CCc1ccccc1C(N)=O [Example 187, 2-{2-[(4αS,5R)-1-(3-fluorophenyl)-5-hydroxy-4α-methyl-1,4,4α,5,6,7-hexahydrocyclopenta[f]indazol-5-yl]ethyl}benzamide] | 5 to 100
CN(C)S(=O)(=O)Nc1ccc(F)cc1CC[C@]1(O)CCC2=Cc3c(cnn3-c3ccc(F)cc3)C[C@@]21C [Example 117, N′-(4-fluoro-2-{2-[(4αS,5R)-1-(4-fluorophenyl)-5-hydroxy-4α-methyl-1,4,4α,5,6,7-hexahydrocyclopenta[f]indazol-5-yl]ethyl}phenyl)-N,N-dimethylsulfamide] | 5 to 100
CC(C)S(=O)(=O)c1ccccc1CC[C@]1(O)CCC2=Cc3c(cnn3-c3ccc(F)cc3)C[C@@]21C [Example 120, (4αS,5R)-1-(4-fluorophenyl)-5-{2-[2-(isopropylsulfonyl)phenyl]ethyl}-4α-methyl-1,4,4α,5,6,7-hexahydrocyclopenta[f]indazol-5-ol] | 5 to 100
CCNC(=O)OCc1ccccc1CC[C@]1(O)CCC2=Cc3c(cnn3-c3ccc(F)cc3)C[C@@]21C [Example 9] | 5 to 100
C=CCN(C)C(=O)c1ccccc1CC[C@]1(O)CCC2=Cc3c(cnn3-c3ccc(F)cc3)C[C@@]21C [Example 50, N-allyl-2-{2-[(4αS,5R)-1-(4-fluorophenyl)-5-hydroxy-4α-methyl-1,4,4α,5,6,7-hexahydrocyclopenta[f]indazol-5-yl]ethyl}-N-methylbenzamide] | 5 to 100
C[C@]12Cc3cnn(-c4ccc(F)cc4)c3C=C1CC[C@@]2(O)CCc1cccc(F)c1C#N [Example 145, 2-fluoro-6-{2-[(4αS,5R)-1-(4-fluorophenyl)-5-hydroxy-4α-methyl-1,4,4α,5,6,7-hexahydrocyclopenta[f]indazol-5-yl]ethyl}benzonitrile] | 5 to 100
CCOC(=O)Nc1ccc(F)cc1CC[C@]1(O)CCC2=Cc3c(cnn3-c3ccc(F)cc3)C[C@@]21C [Example 125, ethyl (4-fluoro-2-{2-[(4αS,5R)-1-(4-fluorophenyl)-5-hydroxy-4α-methyl-1,4,4α,5,6,7-hexahydrocyclopenta[f]indazol-5-yl]ethyl}phenyl)carbamate] | 5 to 100
Cc1cccc(CC[C@]2(O)CCC3=Cc4c(cnn4-c4ccc(F)c(F)c4)C[C@@]32C)c1C(N)=O [Example 186, 2-{2-[(4αS,5R)-1-(3,4-difluorophenyl)-5-hydroxy-4α-methyl-1,4,4α,5,6,7-hexahydrocyclopenta[f]indazol-5-yl]ethyl}-6-methylbenzamide] | 5 to 100
C[C@]12Cc3cnn(-c4ccc(F)cc4)c3C=C1CC[C@@]2(O)CCc1ccccc1C(=O)N1CCC(F)(F)C1 [Example 74, (4αS,5R)-5-(2-{2-[(3,3-difluoropyrrolidin-1-yl)carbonyl]phenyl}ethyl)-1-(4-fluorophenyl)-4α-methyl-1,4,4α,5,6,7-hexahydrocyclopenta[f]indazol-5-ol] | 5 to 100

Next, values leading:

Emax [%] | SMILES
5 to 100 | C[C@]12Cc3cnn(-c4ccc(F)cc4)c3C=C1CC[C@@]2(O)CCc1ccccc1NS(=O)(=O)CC(F)(F)F [Example 118, 2,2,2-trifluoro-N-(2-{2-[(4αS,5R)-1-(4-fluorophenyl)-5-hydroxy-4α-methyl-1,4,4α,5,6,7-hexahydrocyclopenta[f]indazol-5-yl]ethyl}phenyl)ethanesulfonamide]
5 to 100 | C[C@]12Cc3cnn(-c4ccc(F)cc4)c3C=C1CC[C@@]2(O)CCc1ccccc1C(=O)N1CC[C@@H](O)C1 [Example 58, (4αS,5R)-1-(4-fluorophenyl)-5-[2-(2-{[(3R)-3-hydroxypyrrolidin-1-yl]carbonyl}phenyl)ethyl]-4α-methyl-1,4,4α,5,6,7-hexahydrocyclopenta[f]indazol-5-ol]
5 to 100 | C[C@]12Cc3cnn(-c4ccc(F)cc4)c3C=C1CC[C@@]2(O)CCc1cccc(F)c1CNS(=O)(=O)c1ccccc1F [Example 80, 2-fluoro-N-(2-fluoro-6-{2-[(4αS,5R)-1-(4-fluorophenyl)-5-hydroxy-4α-methyl-1,4,4α,5,6,7-hexahydrocyclopenta[f]indazol-5-yl]ethyl}benzyl)benzenesulfonamide]
5 to 100 | C[C@]12Cc3cnn(-c4ccc(F)cc4)c3C=C1CC[C@@]2(O)CCc1cccc(F)c1CN [Example 153, (4αS,5R)-5-{2-[2-(aminomethyl)-3-fluorophenyl]ethyl}-1-(4-fluorophenyl)-4α-methyl-1,4,4α,5,6,7-hexahydrocyclopenta[f]indazol-5-ol]
5 to 100 | C[C@]12Cc3cnn(-c4ccc(F)cc4)c3C=C1CC[C@@]2(O)CCc1cccc(F)c1NS(=O)(=O)CC(F)(F)F [Example 116, 2,2,2-trifluoro-N-(2-fluoro-6-{2-[(4αS,5R)-1-(4-fluorophenyl)-5-hydroxy-4α-methyl-1,4,4α,5,6,7-hexahydrocyclopenta[f]indazol-5-yl]ethyl}phenyl)ethanesulfonamide]
5 to 100 | CCOC1(OCC)CN(C(=O)c2ccccc2CC[C@]2(O)CCC3=Cc4c(cnn4-c4ccc(F)cc4)C[C@@]32C)C1 [Example 24, (4αS,5R)-5-(2-{2-[(3,3-diethoxyazetidin-1-yl)carbonyl]phenyl}ethyl)-1-(4-fluorophenyl)-4α-methyl-1,4,4α,5,6,7-hexahydrocyclopenta[f]indazol-5-ol]
5 to 100 | C[C@]12Cc3cnn(-c4ccc(F)cc4)c3C=C1CC[C@@]2(O)CCc1ccccc1CNS(C)(=O)=O [Example 87, N-(2-{2-[(4αS,5R)-1-(4-fluorophenyl)-5-hydroxy-4α-methyl-1,4,4α,5,6,7-hexahydrocyclopenta[f]indazol-5-yl]ethyl}benzyl)methanesulfonamide]
5 to 100 | COC(=O)Oc1ccccc1CC[C@]1(O)CCC2=Cc3c(cnn3-c3ccc(F)cc3)C[C@@]21C [Example 135, 2-{2-[(4αS,5R)-1-(4-fluorophenyl)-5-hydroxy-4α-methyl-1,4,4α,5,6,7-hexahydrocyclopenta[f]indazol-5-yl]ethyl}phenyl methyl carbonate]
5 to 100 | C[C@]12Cc3cnn(-c4ccc(F)cc4)c3C=C1CC[C@@]2(O)CCc1ccccc1C(N)=O [Example 60, 2-{2-[(4αS,5R)-1-(4-fluorophenyl)-5-hydroxy-4α-methyl-1,4,4α,5,6,7-hexahydrocyclopenta[f]indazol-5-yl]ethyl}benzamide]
5 to 100 | COC(=O)Nc1ccc(F)cc1CC[C@]1(O)CCC2=Cc3c(cnn3-c3ccc(F)cc3)C[C@@]21C [Example 124, methyl (4-fluoro-6-{2-[(4αS,5R)-1-(4-fluorophenyl)-5-hydroxy-4α-methyl-1,4,4α,5,6,7-hexahydrocyclopenta[f]indazol-5-yl]ethyl}phenyl)carbamate]
5 to 100 | C[C@@H](NS(=O)(=O)CC(F)(F)F)c1c(F)cccc1CC[C@]1(O)CCC2=Cc3c(cnn3-c3ccc(F)cc3)C[C@@]21C [Example 96, 2,2,2-trifluoro-N-[(1R)-1-(2-fluoro-6-{2-[(4αS,5R)-1-(4-fluorophenyl)-5-hydroxy-4α-methyl-1,4,4α,5,6,7-hexahydrocyclopenta[f]indazol-5-yl]ethyl}phenyl)ethyl]ethanesulfonamide]
5 to 100 | C=C(F)CNC(=O)c1ccccc1CC[C@]1(O)CCC2=Cc3c(cnn3-c3ccc(F)cc3)C[C@@]21C [Example 53, 2-{2-[(4αS,5R)-1-(4-fluorophenyl)-5-hydroxy-4α-methyl-1,4,4α,5,6,7-hexahydrocyclopenta[f]indazol-5-yl]ethyl}-N-(2-fluoroprop-2-en-1-yl)benzamide]
